The results in this text go back to article PMC9929129, “Towards Translation of PqsR Inverse Agonists: From In Vitro Efficacy Optimization to In Vivo Proof‐of‐Principle” (Advanced Science, 2023).

The structures appear in SMILES notation. ≈ marks a conversion by molar mass, not a printed value.

For data set [1], the system named is PA14 biofilm. Nature of the data set: Biofilm-formation assay (Calgary biofilm device). The class given is cell-based, Pseudomonas aeruginosa. The following applies: 24 present from the beginning or added 8 h after onset of biofilm growth; CFU after 48 h. Here is the method: (§1) MA, USA) instrument parameters: Spray voltage 3500 V, vaporizer temperature 370 °C, sheath gas pressure 35 psi, aux gas pressure 30 psi, capillary temperature 270 °C, collision pressure 1.5 mTorr, positive ionization mode. For AQ analyte reaction monitoring parameters please see Table S1.
(§2) Table S1. LC-ESI-MS/MS reaction monitoring parameters of AQ analytes in positive ionization mode. precursor product ion collision tube lens retention ion m/z m/z energy (V) offset (V) time (min)
(§3) 1.2.4 Biofilm-formation assay
(§4) Biofilm formation was determined using a MBEC Assay® Biofilm Inoculator with 96-well base (Innvotech, Edmonton, CA). An overnight culture of PA14 was centrifuged (10 min, 5000 x g). The supernatant including extracellular polymers was removed and the pellet washed with 10 mL of LB medium. Centrifugation was repeated, the supernatant discarded, and the pellet resuspended in 5 mL of LB. OD was adjusted to 0.2. The bacteria were further diluted in LB medium, followed by addition of the target compound or DMSO control to give OD 0.1 and 1% DMSO. 150 µL were added to each well of the 96-well plate. The outer wells were used as blanks containing 150 µL of 1% DMSO in LB. Six replicates per sample were distributed evenly across the plate, with every row containing one replicate of each sample. […]
(§5) Statistical outliers were determined using the Nalimov test, applying a 95% cut-off. […]

Data set [2] deals with PA14 biofilm. Nature of the data set: Biofilm-eradication assay with tobramycin (Calgary biofilm device). The class given is cell-based, Pseudomonas aeruginosa. The procedure:
as §1, §2, §3
as §4, with “sample. The well plate was covered with the peg lid. One layer of parafilm was wrapped around the biofilm inoculator. The inoculator was incubated at 37 °C, static for 24 h with a beaker of H2O ensuring humidity. Alternatively, the plate was incubated using only LB for 8 h prior to addition of DMSO/24 to give 1% DMSO, followed by another 16 h incubation under the same” for “sample.”
After 24 h, the plate was removed from the incubator and the peg lid was transferred to a fresh 96 well plate (Nunc U bottom, Thermo Fisher, Dreieich, Germany) containing the respective target […]
compound, 150 µL 1% DMSO in LB. The inoculator was wrapped with parafilm again and incubated for another 24 h. […]
as §5

Data set [3] in a line: Plasma protein binding, human (equilibrium dialysis). The class given is in vitro ADME. Here is the method:
1.4.4 Pharmacokinetic and off-target functional assays (Cyprotex)
Compound 24 was assayed at Cyprotex in functional assays for interference with important off-targets as well as important pharmacokinetic parameters. With the exception of plasma protein binding, a dose-response relationship was studied in order to calculate IC50 values.
Table S10. Information on in vitro ADMET assays performed at Cyprotex. […]
Plasma protein binding assay (human and Equilibrium dialysis […]
An increase in the number of colonies of at least two-fold over baseline (mean + SD of the vehicle control) and a dose response indicate a positive response. An […]
different from the vehicle control.
Where indicated, S9 fraction from the livers of Aroclor 1254-treated rats were included in the incubation at a final concentration of 4.5%. A NADPH-regenerating system was also included to ensure a steady supply of reducing equivalents.
A general note: Equilibrium dialysis compares concentrations on both sides of a semipermeable membrane.

Data set [4] deals with T1, HTR2B Human 5-Hydroxytryptamine GPCR (Homo sapiens, UniProt P41595).
T1 construct: 86-0030P-2091AN
T1 sequence (P41595 whole entry): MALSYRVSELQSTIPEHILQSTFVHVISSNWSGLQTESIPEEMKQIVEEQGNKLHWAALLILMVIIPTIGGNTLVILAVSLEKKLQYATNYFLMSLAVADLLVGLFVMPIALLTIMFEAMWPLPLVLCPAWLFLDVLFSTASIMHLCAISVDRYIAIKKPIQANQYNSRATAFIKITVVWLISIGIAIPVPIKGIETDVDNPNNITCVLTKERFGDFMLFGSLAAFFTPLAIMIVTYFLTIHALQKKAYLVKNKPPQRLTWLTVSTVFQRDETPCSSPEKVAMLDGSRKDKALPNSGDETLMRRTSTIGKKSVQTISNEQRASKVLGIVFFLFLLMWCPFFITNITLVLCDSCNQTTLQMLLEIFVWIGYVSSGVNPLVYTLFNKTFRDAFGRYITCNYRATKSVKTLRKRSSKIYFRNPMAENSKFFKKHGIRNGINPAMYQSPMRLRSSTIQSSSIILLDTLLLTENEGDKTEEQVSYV
Put plainly: HTR2B GPCR calcium assay, 86-0030P-2091AN. The class given is cell-based. From the text: 1.4.2 Further functional off-target assays (Eurofins)
Table S8. Compound 24 was further tested in the following functional assays at Eurofins.
ASSAY NAME ESTIMATED IC50 [µM] […]
(§6) FLIPR Assay expressed in HEK293 cells
(§7) GABAA α5/β3/γ2 ionotropic receptor (human GABRA5, GABRB3, >30
(§8) and GABRG2 genes, expressed in HEK293 cells

The target of another data set is T2, ENaC channel (Homo sapiens, UniProt P37088+P51168+P51170).
T2 construct: host or cells: HEK293 cells
T2 sequence (P51170 whole entry): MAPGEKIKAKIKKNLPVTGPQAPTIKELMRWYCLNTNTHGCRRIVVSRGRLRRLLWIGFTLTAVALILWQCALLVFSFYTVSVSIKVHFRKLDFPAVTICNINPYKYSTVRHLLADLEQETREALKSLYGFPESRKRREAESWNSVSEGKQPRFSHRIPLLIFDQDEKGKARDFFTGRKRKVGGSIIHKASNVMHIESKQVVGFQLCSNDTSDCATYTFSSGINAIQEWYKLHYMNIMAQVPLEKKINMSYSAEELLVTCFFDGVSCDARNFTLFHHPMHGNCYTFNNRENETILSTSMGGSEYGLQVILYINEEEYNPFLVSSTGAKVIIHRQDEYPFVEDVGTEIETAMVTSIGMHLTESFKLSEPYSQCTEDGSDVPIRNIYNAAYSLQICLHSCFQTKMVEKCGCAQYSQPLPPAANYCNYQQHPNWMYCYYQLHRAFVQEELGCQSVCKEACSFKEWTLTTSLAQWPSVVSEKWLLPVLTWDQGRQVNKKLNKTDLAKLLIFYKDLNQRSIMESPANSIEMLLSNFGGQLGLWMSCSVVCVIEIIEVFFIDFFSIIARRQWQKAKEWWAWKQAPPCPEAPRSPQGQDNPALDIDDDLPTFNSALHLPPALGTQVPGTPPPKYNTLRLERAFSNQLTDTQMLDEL
T2 sequence (P37088 whole entry): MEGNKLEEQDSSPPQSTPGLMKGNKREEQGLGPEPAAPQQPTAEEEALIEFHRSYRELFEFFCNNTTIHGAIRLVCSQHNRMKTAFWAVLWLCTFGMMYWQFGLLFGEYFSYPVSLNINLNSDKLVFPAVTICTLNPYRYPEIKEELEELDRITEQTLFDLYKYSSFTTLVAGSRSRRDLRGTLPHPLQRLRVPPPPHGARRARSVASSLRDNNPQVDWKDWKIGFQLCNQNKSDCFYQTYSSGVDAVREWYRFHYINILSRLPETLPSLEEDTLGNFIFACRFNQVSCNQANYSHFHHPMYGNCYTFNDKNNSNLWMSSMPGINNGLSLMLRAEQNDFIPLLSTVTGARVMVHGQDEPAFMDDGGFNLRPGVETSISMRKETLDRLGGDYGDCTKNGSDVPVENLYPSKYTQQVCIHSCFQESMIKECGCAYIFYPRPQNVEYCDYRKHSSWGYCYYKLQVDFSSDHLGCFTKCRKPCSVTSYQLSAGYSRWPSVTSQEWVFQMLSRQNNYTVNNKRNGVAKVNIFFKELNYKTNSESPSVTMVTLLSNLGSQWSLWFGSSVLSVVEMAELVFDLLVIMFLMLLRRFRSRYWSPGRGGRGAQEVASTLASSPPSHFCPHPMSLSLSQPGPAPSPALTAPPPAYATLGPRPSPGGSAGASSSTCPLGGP
T2 sequence (P51168 whole entry): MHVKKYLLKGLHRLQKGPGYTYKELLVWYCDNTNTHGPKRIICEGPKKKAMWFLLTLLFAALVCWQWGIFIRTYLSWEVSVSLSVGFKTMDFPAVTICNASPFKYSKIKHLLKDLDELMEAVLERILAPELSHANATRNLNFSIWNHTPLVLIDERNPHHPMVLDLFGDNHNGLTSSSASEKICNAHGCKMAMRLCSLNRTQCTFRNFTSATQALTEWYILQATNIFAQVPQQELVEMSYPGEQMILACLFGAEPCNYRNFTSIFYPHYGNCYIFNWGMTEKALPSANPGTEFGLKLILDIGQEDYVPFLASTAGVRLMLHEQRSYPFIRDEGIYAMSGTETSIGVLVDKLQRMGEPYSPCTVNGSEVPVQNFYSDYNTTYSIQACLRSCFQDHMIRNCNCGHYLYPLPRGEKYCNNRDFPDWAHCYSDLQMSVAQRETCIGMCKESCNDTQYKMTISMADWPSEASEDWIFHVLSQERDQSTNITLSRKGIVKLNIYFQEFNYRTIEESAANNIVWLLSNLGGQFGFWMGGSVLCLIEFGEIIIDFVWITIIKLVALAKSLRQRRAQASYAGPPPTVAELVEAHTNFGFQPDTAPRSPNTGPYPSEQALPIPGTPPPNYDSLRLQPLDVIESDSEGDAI
Nature of the data set: Ion channel profiling at Charles River: ENaC. The class given is cell-based. The procedure:
1.4.3 Ion Channel Profiling at Charles River
Table S9. Compound 24 was tested against the following ion channels at Charles River Laboratories.
ASSAY TYPE ION CHANNEL AND EXPRESSION SYSTEM ESTIMATED […]
ScreenPatch Assay Kv1.3 potassium channel (human KCNA3 gene) expressed in CHO
ENaC channel (human SCNN1A, SCNN1B and SCNN1G genes, >30
as §6, §7, §8

A further data set has as its target T3, COX-1 (h) (Homo sapiens, UniProt P23219).
T3 construct: Eurofins Pharma Discovery (CRO that ran the assay) SafetyScreen44 Panel (Cerep, ITEM P270)
Put plainly: Cerep panel functional assay. The class given is biochemical. The procedure:
(§9) 1.4 Safety Pharmacology of Compound 24
(§10) 1.4.1 Cerep panel (Eurofins)
(§11) Compound 24 was further profiled for its off-target interactions against a panel of 44 targets. The
(§12) screening was done by Eurofins Pharma Discovery within the SafetyScreen44 Panel (Cerep, ITEM
(§13) P270). In all assays binding/functional inhibition was determined at 10 µM. […]

The next data set addresses T4, COX-2 (h) (Homo sapiens, UniProt P35354).
T4 construct: Eurofins Pharma Discovery (CRO that ran the assay) SafetyScreen44 Panel (Cerep, ITEM P270)
Put plainly: Cerep panel functional assay. The class given is biochemical. The procedure:
as §9, §10, §11, §12, §13

A further data set concerns the target T5, Lck kinase (h) (Homo sapiens, UniProt P06239).
T5 construct: Eurofins Pharma Discovery (CRO that ran the assay) SafetyScreen44 Panel (Cerep, ITEM P270)
Put plainly: Cerep panel functional assay. The class given is biochemical. Here is the method:
as §9, §10, §11, §12, §13

The target in the next data set is T6, PDE3A (h) (Homo sapiens, UniProt Q14432).
T6 construct: Eurofins Pharma Discovery (CRO that ran the assay) SafetyScreen44 Panel (Cerep, ITEM P270)
T6 sequence (Q14432 whole entry): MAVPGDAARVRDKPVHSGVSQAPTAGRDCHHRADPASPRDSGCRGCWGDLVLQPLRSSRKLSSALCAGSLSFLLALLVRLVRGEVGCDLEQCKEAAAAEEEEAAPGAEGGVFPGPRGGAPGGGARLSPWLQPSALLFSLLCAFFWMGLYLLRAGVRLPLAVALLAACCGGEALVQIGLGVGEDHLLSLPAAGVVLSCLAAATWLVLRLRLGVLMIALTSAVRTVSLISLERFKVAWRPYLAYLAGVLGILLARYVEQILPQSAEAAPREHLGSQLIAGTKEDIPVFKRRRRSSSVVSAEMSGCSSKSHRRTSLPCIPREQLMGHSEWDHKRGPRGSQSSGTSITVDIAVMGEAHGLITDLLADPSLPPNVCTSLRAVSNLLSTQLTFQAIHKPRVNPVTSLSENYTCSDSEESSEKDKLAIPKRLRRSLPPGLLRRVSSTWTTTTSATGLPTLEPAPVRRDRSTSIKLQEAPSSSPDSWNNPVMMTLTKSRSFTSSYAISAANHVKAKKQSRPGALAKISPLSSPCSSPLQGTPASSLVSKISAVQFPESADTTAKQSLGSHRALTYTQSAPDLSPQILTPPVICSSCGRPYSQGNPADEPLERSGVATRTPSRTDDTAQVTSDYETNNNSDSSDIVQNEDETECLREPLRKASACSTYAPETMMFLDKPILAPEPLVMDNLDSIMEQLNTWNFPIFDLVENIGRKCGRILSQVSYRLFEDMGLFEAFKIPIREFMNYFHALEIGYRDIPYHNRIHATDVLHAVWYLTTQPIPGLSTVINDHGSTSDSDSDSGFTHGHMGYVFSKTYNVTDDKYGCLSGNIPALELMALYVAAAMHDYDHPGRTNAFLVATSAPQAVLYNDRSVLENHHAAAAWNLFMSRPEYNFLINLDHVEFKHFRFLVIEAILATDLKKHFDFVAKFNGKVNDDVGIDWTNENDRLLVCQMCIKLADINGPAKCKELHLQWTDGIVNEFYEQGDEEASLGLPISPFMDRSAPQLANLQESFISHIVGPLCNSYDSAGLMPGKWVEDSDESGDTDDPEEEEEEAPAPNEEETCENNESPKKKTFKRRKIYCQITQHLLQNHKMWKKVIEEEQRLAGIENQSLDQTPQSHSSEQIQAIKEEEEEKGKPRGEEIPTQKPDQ
Nature of the data set: Cerep panel functional assay. The class given is biochemical. The procedure: as §9, §10, §11, §12, §13

Another data set has as its target T7, PDE4D2 (h) (Homo sapiens, UniProt Q08499).
T7 construct: Eurofins Pharma Discovery (CRO that ran the assay) SafetyScreen44 Panel (Cerep, ITEM P270)
Put plainly: Cerep panel functional assay. The class given is biochemical. Here is the method:
as §9, §10, §11, §12, §13

In the next data set the target is T8, acetylcholinesterase (h) (Homo sapiens, UniProt P22303).
T8 construct: Eurofins Pharma Discovery (CRO that ran the assay) SafetyScreen44 Panel (Cerep, ITEM P270)
T8 sequence (P22303 32-614): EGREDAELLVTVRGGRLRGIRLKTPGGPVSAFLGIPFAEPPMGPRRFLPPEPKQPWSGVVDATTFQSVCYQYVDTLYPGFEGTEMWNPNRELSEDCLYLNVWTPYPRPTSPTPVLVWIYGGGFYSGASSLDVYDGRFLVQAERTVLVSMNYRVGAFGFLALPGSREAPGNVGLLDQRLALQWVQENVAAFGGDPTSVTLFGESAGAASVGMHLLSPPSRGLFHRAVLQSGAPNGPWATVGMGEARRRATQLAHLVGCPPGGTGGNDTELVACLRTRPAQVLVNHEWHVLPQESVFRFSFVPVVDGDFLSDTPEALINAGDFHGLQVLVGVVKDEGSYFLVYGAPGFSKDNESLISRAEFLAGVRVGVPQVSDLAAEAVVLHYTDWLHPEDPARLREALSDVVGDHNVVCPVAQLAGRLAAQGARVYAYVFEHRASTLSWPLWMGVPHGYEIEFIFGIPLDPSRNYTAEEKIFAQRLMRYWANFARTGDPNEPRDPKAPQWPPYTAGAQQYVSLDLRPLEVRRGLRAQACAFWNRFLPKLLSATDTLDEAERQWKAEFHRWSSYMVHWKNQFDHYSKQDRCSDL
Nature of the data set: Cerep panel functional assay. The class given is biochemical. The procedure:
as §9, §10, §11, §12, §13

Data set [5] can be described thus: Kinetic turbidimetric aqueous solubility. Particulars: PBS buffer, kinetic from dmso stock.

T4 sequence (P35354 18-604): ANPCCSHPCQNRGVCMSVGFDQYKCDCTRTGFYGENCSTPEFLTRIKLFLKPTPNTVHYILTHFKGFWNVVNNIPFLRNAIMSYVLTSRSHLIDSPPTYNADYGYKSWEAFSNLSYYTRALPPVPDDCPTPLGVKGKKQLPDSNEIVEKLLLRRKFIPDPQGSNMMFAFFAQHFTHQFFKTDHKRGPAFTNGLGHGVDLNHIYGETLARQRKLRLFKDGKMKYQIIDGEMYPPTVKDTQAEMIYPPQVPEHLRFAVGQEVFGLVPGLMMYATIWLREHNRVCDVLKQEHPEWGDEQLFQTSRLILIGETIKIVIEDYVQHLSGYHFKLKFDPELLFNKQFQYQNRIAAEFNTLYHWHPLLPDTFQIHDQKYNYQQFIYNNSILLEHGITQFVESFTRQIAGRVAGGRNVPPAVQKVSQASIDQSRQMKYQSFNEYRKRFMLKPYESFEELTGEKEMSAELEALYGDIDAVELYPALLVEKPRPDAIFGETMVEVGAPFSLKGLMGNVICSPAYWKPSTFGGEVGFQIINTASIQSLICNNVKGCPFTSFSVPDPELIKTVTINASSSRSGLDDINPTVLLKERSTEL

On to `CC(C)Oc1ccc(-c2ncc(CNc3ccnc(C(F)(F)F)c3)cn2)cc1Cl` [Compound 24], for which the “PA14 biofilm formation (CFU) compared to DMSO control” value with PA14 biofilm [1] is recorded as “significantly attenuates”. In addition, the “Potentiation of tobramycin activity on biofilm” value in the data set with PA14 biofilm [2] (0.1 × 10^−6 M 24 plus tobramycin 0.5 µg mL^−1, p = 0.21) is “not sufficient”. Moreover, in the data set on PA14 biofilm [2] (1 and 10 × 10^−6 M 24 plus tobramycin 0.5 µg mL^−1), the “CFU reduction of combination treatment compared to single treatment with the antibiotic” value was greater than 3 fold. This molecule also came in with a Plasma binding human in data set [3] greater than 99%. In addition, the results for the IC50 (in data set [4]; against ENaC channel) were greater than 10 µM and greater than 30 µM, respectively. The inhibition at 10 µM against COX-1 (h) was 8.8%; against COX-2 (h) it was 19.1%; against Lck kinase (h), -6.8%; against PDE3A (h), 0.3%; at PDE4D2 (h) it was 6.7%; against acetylcholinesterase (h) it was -1.9%. Further, in [5], the kinetic solubility at 5 min was 47.2 µM (≈ 20 µg/mL).
With `NC[C@H]1O[C@H](O[C@H]2[C@H](O)[C@@H](O[C@H]3O[C@H](CO)[C@@H](O)[C@H](N)[C@H]3O)[C@H](N)C[C@@H]2N)[C@H](N)C[C@@H]1O` [Tobramycin, tobramycin], the “Effect of tobramycin alone on untreated biofilms (CFU)” value with PA14 biofilm [2] (tobramycin 0.5 µg mL^−1, 24 h treatment, p = 0.03) was “only minor effects”.

By IC50 is commonly meant the point on the concentration scale where inhibition reaches its midpoint. For orientation: inhibition means the drop in the measured response relative to a control, in per cent. A word on the kinetic solubility: it is the concentration staying in solution when a stock, usually in DMSO, is diluted into the medium.
